The values that follow come from ChEMBL document CHEMBL1201862, “PubChem BioAssay data set” (2004).

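A five-concentration, 48-hour dose response in 96-well plates underlies each endpoint, interpolated linearly between surrounding concentrations. The concentration for 50% growth inhibition is given as GI50.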 Activity calls are given as the source filed them. Rule as the data show it: active = GI50 up to about 1.1 µM and inactive = higher.

Among the test systems are HCT-116; HOP-62; HOP-92; IGROV-1; K562; LOX IMVI; Malme-3M; NCI-H460; OVCAR-4; RXF 393; SF-268; SF-539; SK-MEL-28; SK-MEL-2; SK-MEL-5; SK-OV-3; SR; SW-620; TK-10; NCI-H226.
Holding throughout (assay): DTP human tumour cell line panel, 48 h

For orientation: GI50 means the concentration at which growth is held to half of that of the control. With `Cn1c(N/N=C/c2ccc(Cl)cc2)nc(-c2ccc(Cl)cc2)c(C#N)c1=O`, the GI50 in the assay with HCT-116 is 13.5 µM (inactive); in the assay on HOP-62, 12 µM (inactive); in the assay with HOP-92, 22.3 µM (inactive); in the assay on IGROV-1 it was 6.73 µM (inactive); with K562 it was > 100 µM (inactive); in the assay on LOX IMVI, 25.2 µM (inactive). The GI50 in the assay on Malme-3M is 24.2 µM (inactive); in the assay with NCI-H460 it was 27 µM (inactive); in the assay on OVCAR-4, 23.8 µM (inactive); with RXF 393, 22.8 µM (inactive); with SF-268 it was 35.4 µM (inactive); in the assay on SF-539, 21.8 µM (inactive). Moreover, the GI50 was 37.8 µM (inactive) with SK-MEL-28; 10.5 µM (inactive) in the assay with SK-MEL-2; 45.1 µM (inactive) in the assay with SK-MEL-5; > 100 µM (inactive) with SK-OV-3; 2.26 µM (inactive) in the assay with SR; 31 µM (inactive) with SW-620. In the assay on TK-10, the GI50 was 29 µM (inactive).

In the case of `COc1cc2ccnc3c2c(c1OC)-c1coc(SC)c1-3`, the GI50 in the assay with HCT-116 is 52.8 µM (inactive); with HOP-62 it was 54.8 µM (inactive); with HOP-92, 29 µM (inactive); in the assay with IGROV-1, > 100 µM (inactive); in the assay with K562 it was > 100 µM (inactive); with LOX IMVI it was 82 µM (inactive). For the same compound, the GI50 is > 100 µM (inactive) in the assay with Malme-3M; 97.3 µM (inactive) in the assay on NCI-H460; 48.6 µM (inactive) in the assay with OVCAR-4; 4.67 µM (inactive) in the assay with RXF 393; 92 µM (inactive) in the assay with SF-268; 56.5 µM (inactive) in the assay on SF-539. Besides, the GI50 in the assay with SK-MEL-2 is > 100 µM (inactive); with SK-MEL-5, 54.7 µM (inactive); in the assay on SK-OV-3 it was > 100 µM (inactive); in the assay with SR, 40.2 µM (inactive); with SW-620, > 100 µM (inactive); in the assay with TK-10 it was > 100 µM (inactive).

On to `C=CCOC(C)(C)C1=CCC(C)CC1` (centres undefined), for which the GI50 in the assay with HCT-116, with HOP-62, in the assay on HOP-92, in the assay on IGROV-1, in the assay with Malme-3M and in the assay on NCI-H460 was > 100 µM (inactive) each time. In addition, the GI50 in the assay with OVCAR-4, in the assay on RXF 393, in the assay on SF-268, in the assay on SF-539, with SK-MEL-28 and in the assay with SK-MEL-5 was > 100 µM (inactive) each time. Besides, the GI50 in the assay with SK-OV-3 is > 100 µM (inactive); with SR, > 10 µM (inactive); in the assay on SW-620, > 100 µM (inactive); in the assay with TK-10, > 100 µM (inactive).

Take `COc1c(O)c2c(c3cc(C(=O)N4CCc5c4c(O)c(OC)c4[nH]c(C(=O)N6CC7CC78C6=CC(=O)c6[nH]cc(C)c68)cc54)[nH]c13)CCN2C(N)=O` (centres undefined) [CC-1065]: the GI50 in the assay on HCT-116 was 0.000207 µM (active); with HOP-92 it was 0.00306 µM (active); in the assay on K562, 0.00309 µM (active); in the assay on LOX IMVI, 0.000895 µM (active); in the assay on Malme-3M, 0.00209 µM (active); in the assay on NCI-H226 it was 0.000212 µM (active). For the same compound, the GI50 is 0.000175 µM (active) with NCI-H460; 0.188 µM (active) in the assay on RXF 393; 0.00259 µM (active) with SF-268; 0.00366 µM (active) with SF-539; 0.00184 µM (active) with SK-MEL-28; 0.0126 µM (active) in the assay with SK-MEL-5. Besides, the GI50 was 0.00217 µM (active) with SK-OV-3, 0.00914 µM (active) in the assay on SR, 0.00105 µM (active) in the assay with SW-620 and 0.0266 µM (active) with TK-10.
